Drawing on patent US4847272A, “Thianaphthene derivatives” (Sankyo Company Limited, priority 1986, dated 1989), this text covers IC50 and ED50 for 4 compounds.

Assay [1] concerns the target T1, Thromboxane A2 Synthetase (Oryctolagus cuniculus, UniProt G1TAZ9).
T1 construct: The platelet microsome fraction was separated from rabbit and from human blood; from tissue; host or cells: rabbit blood platelets, microsome fraction
T1 sequence (G1TAZ9 1-530): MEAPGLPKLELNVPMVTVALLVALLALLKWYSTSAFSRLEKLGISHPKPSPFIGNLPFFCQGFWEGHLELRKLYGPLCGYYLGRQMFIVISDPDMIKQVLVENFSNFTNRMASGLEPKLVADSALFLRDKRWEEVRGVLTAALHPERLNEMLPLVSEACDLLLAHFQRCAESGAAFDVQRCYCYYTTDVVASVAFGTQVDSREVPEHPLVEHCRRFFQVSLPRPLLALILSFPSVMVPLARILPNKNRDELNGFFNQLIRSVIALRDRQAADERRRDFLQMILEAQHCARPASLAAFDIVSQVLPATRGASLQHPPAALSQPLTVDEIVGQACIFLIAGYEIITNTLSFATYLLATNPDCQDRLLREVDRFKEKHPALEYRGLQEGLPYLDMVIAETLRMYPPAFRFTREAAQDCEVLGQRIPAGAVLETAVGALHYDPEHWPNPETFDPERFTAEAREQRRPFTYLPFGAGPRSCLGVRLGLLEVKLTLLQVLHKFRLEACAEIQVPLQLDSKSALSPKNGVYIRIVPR
Nature of the assay: Inhibition of Thromboxane A2 Synthetase, rabbit platelet microsomes. The format is biochemical. The note with it: 1-[14C] arachidonic acid 0.1 mM, 1 minute at 22° C., read-out: IC50, concentration required to inhibit the activity of thromboxane synthetase by 50%. How it is done: (§1) The platelet microsome fraction was separated from rabbit and from human blood by the method of Needleman et al. [Needleman et al., Science, 193, 163 (1976)]. The microsomal TXA2 synthetase activity in the presence of various of the compounds of the invention at various concentrations was assayed by a modification of the method of […] et al. [[…] et al., Prostaglandins, 21, 543 (1981)] by incubating the microsome fractions with labelled 1-[^14 C] arachidonic acid at a concentration of 0.1 mM for 1 minute at 22° C., to a final volume of 0.2 ml. The reaction was terminated by the addition of […] of 0.2M citric acid, and then the mixture was extracted with 1.5 ml of ethyl acetate. […] The developing solvent for the chromatography was a 90:8:1:0.8 by volume mixture of chloroform, methanol, acetic acid and water. […] The results are shown in the following Tables 1 and 2 as the IC50, i.e. the concentration required to inhibit the activity of thromboxane synthetase by 50%. The results using rabbits platelet microsomes are given in Table 1, whilst the results using human platelet microsomes are given in Table 2.

Assay [2] deals with T2, Thromboxane A2 Synthetase (Homo sapiens, UniProt P24557).
T2 construct: The platelet microsome fraction was separated from rabbit and from human blood; from tissue; host or cells: human blood platelets, microsome fraction
T2 sequence (P24557 1-533): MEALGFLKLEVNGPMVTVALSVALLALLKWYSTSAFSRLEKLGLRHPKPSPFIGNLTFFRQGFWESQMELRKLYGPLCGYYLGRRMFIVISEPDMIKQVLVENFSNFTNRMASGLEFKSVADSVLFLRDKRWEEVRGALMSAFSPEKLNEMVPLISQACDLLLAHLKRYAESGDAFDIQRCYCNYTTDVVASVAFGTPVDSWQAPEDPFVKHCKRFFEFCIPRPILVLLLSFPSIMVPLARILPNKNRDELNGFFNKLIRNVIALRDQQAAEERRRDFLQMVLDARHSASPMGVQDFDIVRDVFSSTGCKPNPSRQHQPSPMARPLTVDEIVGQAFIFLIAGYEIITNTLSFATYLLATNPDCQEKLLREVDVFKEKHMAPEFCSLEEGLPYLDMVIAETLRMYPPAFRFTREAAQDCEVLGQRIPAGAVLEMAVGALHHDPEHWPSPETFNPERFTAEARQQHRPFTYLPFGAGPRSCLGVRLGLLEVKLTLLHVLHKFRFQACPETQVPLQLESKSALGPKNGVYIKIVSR
Nature of the assay: Inhibition of Thromboxane A2 Synthetase, human platelet microsomes. The format is biochemical. The note with it: 1-[14C] arachidonic acid 0.1 mM, 1 minute at 22° C., read-out: IC50, concentration required to inhibit the activity of thromboxane synthetase by 50%. As for the experimental part: as §1

Assay [3] relates to rabbits. Put plainly: Antithrombotic Activity in Rabbits (sudden death after i.v. arachidonic acid). Format: in vivo, male Japanese white rabbits. The note with it: Oryctolagus cuniculus, 1 h; oral, one hour before 1.3 mg/kg arachidonic acid i.v.; Probit's method. How it is done: This test was carried out by a modification of the method of Silver et al. [Science, 183, 1085 (1974)]. The test animals used were male Japanese white rabbits of approximately 3 kg body weight. Each group of rabbits was administered orally the test compound at an appropriate dose and then, one hour after the oral administration, each was given 1.3 mg/kg of arachidonic acid by intravenous injection. The test animals were observed and sudden deaths during the test period were recorded. The ED50 was determined by Probit's method. Unmedicated rabbits were employed as a control, without administering any test compound, but these were all dead within several minutes after the injection of arachidonic acid, as a result of pulmonary thromboembolisms.

Each structure is given as a SMILES string. Where a name gives a salt, the structure may show the parent alone.

As usually defined, the ED50 is the midpoint of the dose-response relation. A lower ED50 goes with an effect at a small dose. Consider `O=C(O)C1CCc2cc(Cn3ccnc3)sc2C1` (stereo not drawn) [Compound A, 4,5,6,7-tetrahydro-2-(1-imidazolyl)methylthianaphthene-6-carboxylic acid hydrochloride], for which the IC50 was found to be 26 nM in assay [1] and 30 nM in assay [2]. The compound also had an ED50 in assay [3] of 0.27 mg/kg.
The like results for `O=C(O)C1=Cc2sc(Cn3ccnc3)cc2CC1` [Compound B, sodium 4,5-dihydro-2-(1-imidazolyl)methylthianaphthene-6-carboxylate] were, in that order, 13 nM, 31 nM and 0.12 mg/kg.
Take `O=C(O)C1CCc2sc(Cn3ccnc3)cc2C1` (stereo not drawn) [Compound C, 4,5,6,7-tetrahydro-2-(1-imidazolyl)methylthianaphthene-5-carboxylic acid hydrochloride]: in assay [1], the IC50 stood at 86 nM.
`Cl.O=C(O)c1ccc(OCCn2ccnc2)cc1` [Dazoxiben, 4-[2-(1-imidazolyl)ethoxy]benzoic acid hydrochloride, reference compound]: in assay [1], the IC50 turned out to be 106 nM. In assay [3], this compound returned an ED50 of 1.1 mg/kg.
